pIC50: −log10 of the molar value. Read-outs that look alike come from different tables or passages of the source.
Columns and labels:
[1] = system: G-quadruplex in promoter region of the c-myc gene (NHE III1 segment); assay: Dual luciferase analysis with plasmid pGL4.10-myc (luc2) in HGC-27 cells; format: cell-based, human; conditions: for luciferase expression relative to control (control = 100%) / activity at 50 µM: helquat 50 μmol · l^−1, HGC-27, firefly normalized to Renilla, 24 hours after transfection; for inhibition at 50 µM / activity at 50 µM: Homo sapiens; for inhibition at 50 µM: HGC-27, text summary of tab. 5 (50 μmol·l^−1), read-out: inhibition of expression of firefly luciferase as compared to control; for activity at 50 µM: read-out: luciferase expression relative to control (control = 100%)
Text: A dual luciferase analysis was used to determine the degree of stabilization of G-quadruplex in a promoter region of the c-myc gene on cellular level. Stabilization of G-quadruplex is expressed as the ratio of expression of two luciferases (firefly and Renilla) from the co-transfected vectors pGL4.10-myc (luc2) and pRL-TK (Renilla) into a cell line HGC-27 expressing c-myc protein. Expression of the reporter gene (firefly luciferase) from pGL4.10-myc vector is controlled by the c-myc regulatory region of a length of 860 by (in the range from −306 to +554). The inserted sequence contains NHE III1 segment which forms G-quadruplex [Yang, D. et al. (2010) Future Med Chem., 2, 619], and is responsible for as much as 90% of the transcriptional activity of the c-myc gene.
Level of expression of firefly luciferase reporter gene corresponds to promoter activity of c-myc and thus to the degree of stabilization of the G-quadruplex. The signal is normalized to Renilla luciferase expression from pRL-TK vector under the control of a constitutive viral thymidine kinase (HSV-TK) promoter. The amount of Renilla luciferase expression serves as an internal control for normalization of firefly signal on transfection efficiency in the sample. Plasmids pGL4.10-myc (luc2) and pRL-TK were propagated in Escherichia coli (DH5α strain) and purified using the Qiagen Plasmid Mini and Midi kits. Cells were cultured under standard conditions and in exponential growth phase were seeded into a white 96-well microtiter plates. Transfection was carried out using a transfection reagent X-tremeGENE HP DNA in OptiMEM media for two hours. The ratio of reporter and control vector was 1:1 and the ratio of transfection reagent to the total amount of DNA was 1:1. Two hours after transfection helquats were added in a concentration of 50 μmol·l^−1. Quantity of firefly and Renilla luciferases in the samples was determined 24 hours after transfection. Dual luciferase analysis was performed using a commercially available kit (Promega, cat. No. E1960) according to manufacturer's instructions. Luminescence was measured using a luminometer EnSpire Alpha Plate Reader. The data obtained were normalized to the Renilla luciferase signal and then the values were related to control.

CCRF-CEM = assay: XTT cytotoxicity/proliferation assay, CCRF-CEM; format: cell-based
Experimental: To assess the antiproliferative effects of the tested substances in vitro, tumor cell line CCRF-CEM derived from acute lymphoblastic leukemia and normal (healthy) HUVEC endothelial cells from umbilical vein were used. Both of these cell lines were cultured under optimal conditions for their growth in the appropriate medium in plastic bottles or plastic Petri dishes of various sizes (TPP, BD Biosciences) at 37° C., 5% CO2 and 95% humidity. HUVEC cells were purchased from BD Biosciences. CCRF-CEM cell line was obtained from ATCC/LGC Standards (American Type Cell Collection).
Suspension cell line CCRF-CEM is a continuous in vitro culture of acute lymphoblastic leukemia. Cell line CCRF-CEM was grown in RPMI 1640 medium (Sigma-Aldrich, cat. No. R8758) supplemented with 2 mmol·l^−1 glutamine (Invitrogen, cat. No. 35050-038), 10% fetal bovine serum (FBS; Sigma-Aldrich, cat. No. F9665), 100 IU/ml penicillin, 100 μg/ml streptomycin (Sigma-Aldrich, cat. No. P0781). Passaging was carried out 2-3 times a week. Population doubling time of CCRF-CEM cells under the used culture conditions is 20 hours.
For testing of the sensitivity of cell lines to studied helquats XTT cytotoxicity/proliferation assay for determination of cell viability was used. This method is based on the ability of metabolically active cells to reduce the yellow tetrazolium salt XTT to orange formazan. The rate of conversion is measured as the increase in absorbance at 492 nm and is proportional to the enzymatic activity of mitochondrial dehydrogenases and thus the number of metabolically active (viable) cells. The output is the IC50 value corresponding to the concentration of the test substance that causes a decrease in the number of viable cells by half (i.e. 50% slowdown of cell division) relative to the control, untreated population. Thus it reflects the effectiveness of the test substance towards the tested cell line.
Cells in exponential growth phase were plated into 96-well microtiter plate at a concentration of 3000 cells per well. Each well contained 90 μl of cell suspension. The following day, 10 μl of 10× concentrated test substances was added. Effect of helquats has been studied in the concentration range 1-100 μmol·l^−1 (or 1, 2.5, 5, 7.5, 10; 15; 25; 50 and 100 μmol·l^−1). In addition to the part of the plate containing the mentioned dilutions of test compounds there were always two control columns present, first column with medium alone (i.e. blank) and the second column with the cells in medium without test compounds (control). Into the blank and control wells the same volume of solvent (water) as the volume of the substances was added. After 72 hours of treatment with substances the measurement of viability was performed according to the manufacturer instructions. Briefly, into each well of a 96-well microtiter plate 50 μl of the prepared working solution of XTT (detection reagent) was added and then the microtiter plate was returned to the CO2 incubator. After 2 hours, the absorbance of each well at 492 nm (reference wavelength 690 nm) was measured using a multifunctional microplate reader (Tecan Genios, Austria).
The results of determination of the viability of cancer and normal cells after treatment with different concentrations of test substances are summarized in Table 9. […] Each concentration of a helquat was tested in triplicates within one IC50 value determination. Each of these IC50 value determinations was repeated in at least three independent experiments. Values above 100 μmol·l^−1 were obtained by extrapolation of data measured in the concentration range 0-100 μmol·l^−1 of helquats.

HUVEC = assay: XTT cytotoxicity/proliferation assay, HUVEC; format: cell-based, human
Experimental: To assess the antiproliferative effects of the tested substances in vitro, tumor cell line CCRF-CEM derived from acute lymphoblastic leukemia and normal (healthy) HUVEC endothelial cells from umbilical vein were used. Both of these cell lines were cultured under optimal conditions for their growth in the appropriate medium in plastic bottles or plastic Petri dishes of various sizes (TPP, BD Biosciences) at 37° C., 5% CO2 and 95% humidity. HUVEC cells were purchased from BD Biosciences. CCRF-CEM cell line was obtained from ATCC/LGC Standards (American Type Cell Collection). Normal human endothelial cells from the umbilical vein are adherent cells, which were grown in plastic Petri dishes coated with collagen I. The culture medium (E-STIMTM; BD Biosciences, cat. […] Then, 5 ml of complete culture media E-STIM™ was added and the cells were centrifuged (180×g, 7 minutes), resuspended and transferred in a desired amount in a new Petri dish with fresh medium. In the experiments cells between passages 3 and 8 (after thawing) were used. Population doubling time of HUVEC cells under the used culture conditions is 38 hours. For testing of the sensitivity of cell lines to studied helquats XTT cytotoxicity/proliferation assay for determination of cell viability was used. This method is based on the ability of metabolically active cells to reduce the yellow tetrazolium salt XTT to orange formazan. The rate of conversion is measured as the increase in absorbance at 492 nm and is proportional to the enzymatic activity of mitochondrial dehydrogenases and thus the number of metabolically active (viable) cells. […] Thus it reflects the effectiveness of the test substance towards the tested cell line. Cells in exponential growth phase were plated into 96-well microtiter plate at a concentration of 3000 cells per well. Each well contained 90 μl of cell suspension. The following day, 10 μl of 10× concentrated test substances was added. […] In addition to the part of the plate containing the mentioned dilutions of test compounds there were always two control columns present, first column with medium alone (i.e. blank) and the second column with the cells in medium without test compounds (control). Into the blank and control wells the same volume of solvent (water) as the volume of the substances was added. After 72 hours of treatment with substances the measurement of viability was performed according to the manufacturer instructions. Briefly, into each well of a 96-well microtiter plate 50 μl of the prepared working solution of XTT (detection reagent) was added and then the microtiter plate was returned to the CO2 incubator. After 2 hours, the absorbance of each well at 492 nm (reference wavelength 690 nm) was measured using a multifunctional microplate reader (Tecan Genios, Austria).

[2] = 72 hours of treatment, read-out: IC50 CCRF CEM
[3] = 72 hours of treatment, values above 100 μmol·l^−1 obtained by extrapolation, read-out: IC50 HUVEC
[4] = Homo sapiens, CCRF-CEM, 72 hours of treatment, read-out: IC50 CCRF CEM
[5] = Homo sapiens, CCRF-CEM, 72 hours, summary of table 9, read-out: concentrations toxic towards CCRF-CEM cells
[6] = Homo sapiens, HUVEC, 72 hours of treatment, values above 100 μmol·l^−1 obtained by extrapolation, read-out: IC50 HUVEC
[7] = Homo sapiens, HUVEC, 72 hours, summary of table 9, read-out: concentrations non-toxic towards HUVEC cells

Compound: 2,13-bis((E)-2-(5-bromothiophen-2-yl)vinyl-8,9-dimethyl-6,7,10,11-tetrahydrodipyrido[2,1-a: 1′,2′-k][2,9]phenanthroline-5,12-diium trifluoromethanesulfonate [MJB-C5-3]
- luciferase expression relative to control (control = 100%) [1]: 65%

Compound: Cc1[nH]c2ccccc2c1/C=C/c1cc2ccccc2[n+]2c1-c1c(ccc3c1-c1cccc[n+]1CCC3)CCC2.O=S(=O)([O-])C(F)(F)F.O=S(=O)([O-])C(F)(F)F [MSC-C10-11, 19-((E)-2-(2-methyl-1H-indol-3-yl)vinyl)-6,7,8,11,12,13-hexahydropyrido[1′″,2″:1″,2″]azepino[4″,3″:5′,6′]benzo[1′,2′:3,4]azepino[1,2-a]quinoline-5,14-diium trifluoromethanesulfonate]
- pIC50 (CCRF-CEM; [2]): 4.60 to 4.96
- luciferase expression relative to control (control = 100%) [1]: 74%
- pIC50 (HUVEC; [3]): ≤ 4.00

Compound: C(=C\c1cc(-c2ccccc2)cs1)/c1cc[n+]2c(c1)-c1c(ccc3c1-c1c4ccccc4cc[n+]1CC3)CC2 [MSB-C11-7, (E)-13-(2-(4-phenylthiophen-2-yl)vinyl)-4,5,8,9-tetrahydroisoquinolino[1,2-a]pyrido[1,2-k][2,9]phenanthroline-3,10-diium trifluoromethanesulfonate]
- pIC50 (CCRF-CEM; [4]): 4.60 to 4.96
- pIC50 (CCRF-CEM; [5]): > 4.60
- pIC50 (HUVEC; [6]): ≤ 4.00
- pIC50 (HUVEC; [7]): < 4.00

Compound: C(=C\c1cc(/C=C/c2ccsc2)[n+]2c(c1)-c1c(ccc3c1-c1cccc[n+]1CC3)CC2)/c1ccsc1 [HTA-C5-9, 2,4-bis((E)-2-(thiophen-3-yl)vinyl)-6,7,10,11-tetrahydrodipyrido[2,1-a:1′,2′-k][2,9]phenanthroline-5,12-diium trifluoromethanesulfonate]
- inhibition at 50 µM [1]: > 10%
- activity at 50 µM [1]: 85%

Compound: Cc1c(C)c2c(c3c1CC[n+]1ccc(/C=C/c4c[nH]c5ccc(Br)cc45)cc1-3)-c1c3ccccc3cc[n+]1CC2 [MJA-C9-30, (E)-13-(2-(5-bromo-1H-indol-3-yl)vinyl)-6,7-dimethyl-4,5,8,9-tetrahydroisoquinolino[1,2-a]pyrido[1,2-k][2,9]phenanthroline-3,10-diium trifluoromethanesulfonate]
- inhibition at 50 µM [1]: > 40%
- activity at 50 µM [1]: 55%

Compound: C(=C\c1c[nH]c2c1ccc1ccccc12)/c1cc[n+]2c(c1)-c1c(ccc3c1-c1c4ccccc4cc[n+]1CC3)CC2 [MSB-C13-16, (E)-13-(2-(1H-benzo[g]indol-3-yl)vinyl)-4,5,8,9-tetrahydroisoquinolino[1,2-a]pyrido[1,2-k][2,9]phenanthroline-3,10-diium trifluoromethanesulfonate]
- pIC50 (CCRF-CEM; [4]): 4.60 to 4.96
- pIC50 (HUVEC; [6]): ≤ 4.29

Compound: 19-((E)-2-(7-methyl-1H-indol-3-yl)vinyl)-6,7,8,11,12,13-hexahydropyrido[1′,2′″:1″,2″]azepino[4″,3″:5′,6′]benzo[1′,2′:3,4]azepino[1,2-a]quinoline-5,14-diium trifluoromethanesulfonate [MSC-C10-31]
- pIC50 (CCRF-CEM; [2]): 4.60 to 4.96
- pIC50 (HUVEC; [3]): ≤ 4.29

Compound: Cc1c(C)c2c(c3c1CC[n+]1ccc(/C=C/c4ccc5oc6ccccc6c5c4)cc1-3)-c1c3ccccc3cc[n+]1CC2 [MJA-C13-22, (E)-13-(2-(dibenzo[b,d]furan-2-yl)vinyl)-6,7-dimethyl-4,5,8,9-tetrahydroisoquinolino[1,2-a]pyrido[1,2-k][2,9]phenanthroline-3,10-diium trifluoromethanesulfonate]
- pIC50 (CCRF-CEM; [4]): ≥ 5.00
- pIC50 (CCRF-CEM; [5]): > 4.60
- pIC50 (HUVEC; [6]): ≤ 4.00
- pIC50 (HUVEC; [7]): < 4.00

Compound: Cc1c(C)c2c(c3c1CC[n+]1ccc4ccccc4c1-3)-c1cccc(/C=C/c3cccc4c3sc3ccccc34)[n+]1CC2 [VDJA-C13-20, (E)-11-(2-(dibenzo[b,d]thiophen-4-yl)vinyl)-6,7-dimethyl-4,5,8,9-tetrahydroisoquinolino[1,2-a]pyrido[1,2-k][2,9]phenanthroline-3,10-diium trifluoromethanesulfonate]
- pIC50 (CCRF-CEM; [4]): 4.60 to 4.96
- pIC50 (CCRF-CEM; [5]): > 4.60
- pIC50 (HUVEC; [6]): ≤ 4.00
- pIC50 (HUVEC; [7]): < 4.00
